Laboratory results from patent US9700049B2, “Anthranilamides in combination with fungicides” (BAYER INTELLECTUAL PROPERTY GMBH, priority 2010, dated 2017).

Columns and labels:
[1] = system: cotton aphid (Aphis gossypii); assay: Aphis gossypii test; assay type: in vivo; conditions: 500 ppm, applied individually
Source text: The kill rates determined a.re entered into Colby's formula.

[2] = system: green peach aphid (Myzus persicae); assay: Myzus persicae test (run-off application); assay type: in vivo; conditions: 500 ppm, applied individually
Source text: Myzus persicae Test (Run-Off Application)

[3] = system: green peach aphid (Myzus persicae); assay: Myzus persicae test (spray on infested cabbage leaves); assay type: in vivo; conditions: 100 g/ha, applied individually
[4] = system: larvae of the mustard beetle (Phaedon cochleariae); assay: Phaedon cochleariae larvae test; conditions: for pest or weed control at 100 g/ha: Phaedon cochleariae, 120 h, read-out: Kill in % after 5d
[5] = system: larvae of the armyworm (Spodoptera frugiperda); assay: Spodoptera frugiperda larvae test; assay type: in vivo; conditions: applied individually; for Kill in % after 2d: 100 g/ha
Experimental: Spodoptera frugiperda Larvae Test
Cabbage leaves (Brassica oleracea) are treated by being sprayed with wits the preparation of active compound of the desired concentration and are populated with larvae of the armyworm (Spodoptera frugiperda) while the leaves are still moist.

With `Cn1c(=O)c2sc3c(=O)n(C)c(=O)c3sc2c1=O` [2,6-DIMETHYL-1H,5H-[1,4]DITHIINO[2,3-C:5,6-C′]DIPYRROLE-1,3,5,7(2H,6H)-TETRONE] the “Kill in % after 1d” value ([1]; after 1 d) was 0%, the “Kill in % after 3 d” value ([1]; after 3 d) was 0% and the “Kill in % after 1d” value [2] was 0%.
In the case of `CO/C=C(/C(=O)OC)c1ccccc1Oc1cc(Oc2ccccc2C#N)ncn1` [azoxystrobin], the “Kill in % after 1d” value [3] is reported as 0% and the “Kill in % after 5d” value ([4]; 100 g/ha, applied individually) is reported as 0%.
`O=C(Nc1ccccc1-c1ccc(Cl)cc1)c1cccnc1Cl` [boscalid] showed a pest or weed control at 100 g/ha [4] of 0%.
For `CCC1(C(=O)N[C@H](C)c2ccc(Cl)cc2)C(C)C1(Cl)Cl` (some centres unmarked) [carpropamid], the pest or weed control at 100 g/ha [4] was 0%.
`CSC1=N[C@@](C)(c2ccccc2)C(=O)N1Nc1ccccc1` [fenamidone] gave a pest or weed control at 100 g/ha [4] of 0%.
`N#Cc1c[nH]cc1-c1cccc2c1OC(F)(F)O2` [fludioxonil] gave a pest or weed control at 100 g/ha [4] of 0%.
For `O=C(NCc1ncc(C(F)(F)F)cc1Cl)c1c(Cl)cccc1Cl` [fluopicolide], the “Kill in % after 5d” value ([4]; 100 g/ha, applied individually) was 0%.
With `O=C(NCCc1ncc(C(F)(F)F)cc1Cl)c1ccccc1C(F)(F)F` [fluopyram] the “Kill in % after 2d” value ([1]; after 2 d) was 0% and the “Kill in % after 2d” value ([4]; 100 g/ha, applied individually, after 2 d) was 0%.
`CO/N=C(/C1=NOCCO1)c1ccccc1Oc1ncnc(Oc2ccccc2Cl)c1F` [fluoxastrobin] showed a pest or weed control at 100 g/ha [4] of 0%.
`O=c1c2cc(F)ccc2nc(-n2cncn2)n1-c1ccc(Cl)cc1Cl` [fluquinconazole] gave a pest or weed control at 100 g/ha [4] of 0%.
With `CC(C)Oc1cccc(NC(=O)c2ccccc2C(F)(F)F)c1` [flutolanil] the “Kill in % after 5d” value [3] was 0% and the pest or weed control at 100 g/ha [4] was 0%.
For `C=CCOC(Cn1ccnc1)c1ccc(Cl)cc1Cl` (centres unmarked) [imazalil], the “Kill in % after 2d” value [5] was 0% and the pest or weed control at 100 g/ha [4] was 0%.
For `CC(C)C1CCC(Cc2ccc(Cl)cc2)C1(O)Cn1cncn1` (centres unmarked) [ipconazole], the “Kill in % after 1d” value [3] was 0% and the pest or weed control at 100 g/ha [4] was 0%.
In the case of `N#Cc1ccccc1NC(=O)c1snc(Cl)c1Cl` [isotianil], the “Kill in % after 5d” value ([4]; 100 g/ha, applied individually) is reported as 0%.
With `COCC(=O)N(c1c(C)cccc1C)[C@H](C)C(=O)OC` [mefenoxam] the “Kill in % after 1d” value [3] was 0% and the “Kill in % after 5d” value ([4]; 100 g/ha, applied individually) was 0%.
`COCC(=O)N(c1c(C)cccc1C)C(C)C(=O)OC` (centres unmarked) [metalaxyl] gave a pest or weed control at 100 g/ha [4] of 0%.
With `CNC(=O)/C(=N/OC)c1ccccc1Oc1ccccc1` [metominostrobin] the “Kill in % after 1d” value [3] was 0%.
Compound `O=C(Nc1ccccc1)N(Cc1ccc(Cl)cc1)C1CCCC1` [pencycuron] has a pest or weed control at 100 g/ha [4] of 0%.
In the case of `Cc1nn(C)c(F)c1C(=O)Nc1ccccc1C(C)CC(C)C` (centres unmarked) [penflufen], the “Kill in % after 2d” value [5] is reported as 0% and the “Kill in % after 5d” value ([4]; 100 g/ha, applied individually) is reported as 0%.
`OC(Cc1ccccc1Cl)(Cn1nc[nH]c1=S)C1(Cl)CC1` (centres unmarked) [prothioconazole] gave a pest or weed control at 100 g/ha [4] of 0%.
`Cn1cc(C(=O)Nc2ccccc2C2CC2C2CC2)c(C(F)F)n1` (centres unmarked) [sedaxane] was tested, and the “Kill in % after 5d” value ([4]; 100 g/ha, applied individually) was 0%.
In the case of `CC(C)(C)C(O)(CCc1ccc(Cl)cc1)Cn1cncn1` (centres unmarked) [tebuconazole], the “Kill in % after 5d” value [3] is reported as 0% and the pest or weed control at 100 g/ha [4] is reported as 0%.
Work on `CC(C)(C)C(O)C(Oc1ccc(Cl)cc1)n1cncn1` (centres unmarked) [triadimenol] yielded a pest or weed control at 100 g/ha [4] of 0%.
With `O=[n+]1[n-]c(-n2ccnc2)nc2ccc(Cl)cc21` [triazoxide] the pest or weed control at 100 g/ha [4] was 0%.
For `CON=C(C(=O)OC)c1ccccc1CON=C(C)c1cccc(C(F)(F)F)c1` [trifloxystrobin], the pest or weed control at 100 g/ha [4] was 0%.
In the case of fosetyl-aluminium, the “Kill in % after 6d” value ([5]; 500 g/ha, after 6 d) is reported as 0%.
For mancozeb, the “Kill in % after 1d” value [3] was 0% and the “Kill in % after 5d” value ([4]; 100 g/ha, applied individually) was 0%.
